Data: PubChem BioAssay (NCI)
Several values for one entry are separate records, joined by “and”; a condition that tells them apart may be missing. Equal values may be shown once.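 All cell lines were grown in 96-well plates and treated with compound for 48 hours. Abbreviation: GI50, concentration required for 50% inhibition of growth. Definition used: TGI = concentration required for complete inhibition of growth.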

How the values were obtained:
Test in all cases: NCI-60 cell line screen, 48 h
[1] = tested on: 786-0 renal
[2] = tested on: A549 NSCLC
[3] = tested on: BT-549 breast
[4] = tested on: HT29 colon
[5] = tested on: K-562 leukemia
[6] = tested on: NCI-H226 lung
[7] = tested on: SF-268 CNS
[8] = tested on: SF-539 CNS
[9] = tested on: DLD-1 colon
[10] = tested on: DMS 114 small cell lung
[11] = tested on: DMS 273 small cell lung

Compound: CCOC(=O)c1ccccc1-c1c2ccc(=[N+](C)C)cc-2oc2cc(N(C)C)ccc12
- GI50 [1]: 940 nM
- TGI [1]: > 36.5 µM
- GI50 [2]: 256 nM
- TGI [2]: > 38.7 µM
- GI50 [3]: 0.178 µM
- TGI [3]: 2.77 µM
- GI50 [4]: 211 nM
- GI50 [5]: 145 nM
- TGI [5]: > 35.1 µM
- GI50 [6]: 758 nM
- TGI [6]: 10.2 µM
- GI50 [7]: 332 nM
- TGI [7]: 27.5 µM
- GI50 [8]: 379 nM
- TGI [8]: 5.33 µM

Compound: CC(=O)n1ccc2c(Cl)ncnc21
- TGI [1]: > 100 µM
- TGI [2]: > 100 µM
- TGI [9]: > 100 µM
- TGI [10]: > 100 µM
- TGI [11]: > 100 µM
- TGI [4]: > 100 µM
- TGI [5]: > 100 µM
- TGI [7]: > 100 µM
- TGI [8]: > 100 µM

Compound: O=c1c2c3c(sc2n2c(-c4ccc(Br)cc4)nnc2n1Cc1ccccc1)CCCC3
- GI50 [1]: 3960 nM
- TGI [1]: 14.6 µM
- GI50 [2]: 12400 nM
- TGI [2]: 24.8 µM
- GI50 [3]: 6.04 µM
- TGI [3]: 19.8 µM
- GI50 [4]: 20600 nM
- TGI [4]: 58.7 µM
- GI50 [5]: 23800 nM
- TGI [5]: > 100 µM
- GI50 [6]: 7320 nM
- TGI [6]: 20.3 µM
- GI50 [7]: 7440 nM
- TGI [7]: 21.1 µM
- GI50 [8]: 11900 nM
- TGI [8]: 32.3 µM

Compound: O=C(CC(=O)c1ccccc1)c1ccccc1
- GI50 [1]: 11000 nM
- TGI [1]: 43.6 µM
- GI50 [2]: 26900 nM
- TGI [2]: 69.5 µM
- GI50 [3]: 9.37 µM
- TGI [3]: 34.3 µM
- GI50 [4]: 30100 nM
- TGI [4]: > 100 µM
- GI50 [5]: 8310 nM
- TGI [5]: > 100 µM
- GI50 [6]: 37200 nM
- TGI [6]: > 100 µM
- GI50 [7]: 10900 nM
- TGI [7]: 57.7 µM
- GI50 [8]: 4500 nM
- TGI [8]: 16.2 µM

Compound: O=C1NC2(C=Cc3c(ccc4ccccc34)O2)Oc2ccccc21 (stereo not drawn)
- TGI [1]: > 100 µM
- TGI [2]: > 100 µM
- TGI [10]: 51 µM
- TGI [11]: 76.1 µM
- TGI [4]: 30.3 µM
- TGI [5]: > 100 µM
- TGI [6]: 74.1 µM
- TGI [7]: 58.3 µM
- TGI [8]: 50.2 µM

Compound: Oc1ccc(Cl)cc1-c1cc(-c2ccc(F)cc2)n[nH]1
- GI50 [1]: 1820 nM
- TGI [1]: 3.41 µM
- GI50 [2]: 2110 nM
- TGI [2]: 7.2 µM
- GI50 [3]: 3.59 µM
- TGI [3]: 16.6 µM
- GI50 [4]: 3990 nM
- TGI [4]: 22.2 µM
- GI50 [5]: 2800 nM
- TGI [5]: 27.1 µM
- GI50 [6]: 2570 nM
- TGI [6]: 12.9 µM
- GI50 [7]: 2660 nM
- TGI [7]: 11.4 µM
- GI50 [8]: 2100 nM
- TGI [8]: 4.51 µM

Compound: CCOC(=O)NC(=O)c1c[nH]c(=O)[nH]c1=O
- TGI [1]: > 100 µM
- TGI [2]: > 100 µM
- TGI [9]: > 100 µM
- TGI [10]: > 100 µM
- TGI [11]: > 100 µM
- TGI [4]: > 100 µM
- TGI [5]: > 100 µM
- TGI [6]: > 100 µM
- TGI [8]: > 100 µM

Compound: O=C1c2ccccc2-c2c1c1ccccc1c(=O)n2-c1ccccc1
- TGI [1]: 10.6 µM
- TGI [2]: > 100 µM
- TGI [3]: > 52 µM
- TGI [4]: > 100 µM
- TGI [5]: > 100 µM
- TGI [6]: 41.4 µM
- TGI [7]: 52.7 µM
- TGI [8]: 12.3 µM

Compound: C[n+]1c(N)n(C(=O)OCc2ccccc2)c(=O)c2c1ncn2C(=O)OCc1ccccc1
- TGI [1]: > 100 µM
- TGI [2]: > 100 µM
- TGI [9]: > 100 µM
- TGI [10]: > 100 µM
- TGI [11]: > 100 µM
- TGI [4]: > 100 µM
- TGI [5]: > 100 µM
- TGI [6]: 59.8 µM
- TGI [7]: > 100 µM

Compound: CCOC(=O)Cc1csc(NC(=O)COC(=O)c2ccc(OC)cc2)n1
- GI50 [1]: 35700 nM
- TGI [1]: > 57.6 µM
- GI50 [2]: > 100000 nM
- TGI [2]: > 100 µM
- GI50 [3]: 24.7 µM
- TGI [3]: 66.3 µM
- GI50 [4]: 30800 nM
- TGI [4]: > 80.1 µM
- GI50 [5]: 1160 nM
- TGI [5]: > 60.9 µM
- GI50 [6]: > 100000 nM
- TGI [6]: > 100 µM
- GI50 [7]: 16600 nM
- TGI [7]: 40.9 µM
- GI50 [8]: 19300 nM
- TGI [8]: 37.7 µM

Compound: CO[C@H](C(=O)O)[C@@H]1Cc2cc3cc(OC4CC(OC5CC(O)C(O)C(C)O5)C(O)C(C)O4)c(C)c(O)c3c(O)c2C(=O)[C@H]1OC1CC(OC2CC(OC3CC(C)(O)C(O)C(C)O3)C(O)C(C)O2)C(O)C(C)O1 (stereo partly drawn)
- GI50 [1]: 213 nM
- TGI [1]: > 32.5 µM
- GI50 [2]: 257 nM
- TGI [2]: > 32.5 µM
- GI50 [3]: 0.136 µM
- TGI [3]: 1.13 µM
- GI50 [4]: 305 nM
- TGI [4]: > 32.5 µM
- GI50 [5]: 303 nM
- TGI [5]: > 32.5 µM
- GI50 [6]: 126 nM
- TGI [6]: 0.892 µM
- GI50 [7]: 283 nM
- TGI [7]: > 32.5 µM
- GI50 [8]: 164 nM
- TGI [8]: 2.02 µM

Compound: N#Cc1cccc(OCc2ccccc2COc2cccc(C#N)c2)c1
- GI50 [1]: 12300 nM
- TGI [1]: 27.7 µM
- GI50 [2]: 42500 nM
- TGI [2]: > 100 µM
- GI50 [3]: 36.7 µM
- TGI [3]: 93.3 µM
- GI50 [4]: > 100000 nM
- TGI [4]: > 100 µM
- GI50 [5]: 64500 nM
- TGI [5]: > 100 µM
- GI50 [6]: 29100 nM
- TGI [6]: 88.1 µM
- GI50 [7]: 25000 nM
- TGI [7]: 61.2 µM
- GI50 [8]: 18800 nM
- TGI [8]: 35.5 µM

Compound: CCCCCc1c(C)[nH]c(/C=C2\N=C(c3ccc[nH]3)C=C2OCc2ccccc2)c1C
- GI50 [1]: 52 nM and 34.8 nM
- TGI [1]: 0.378 µM and 0.226 µM
- GI50 [2]: 32.8 nM and 28.3 nM
- TGI [2]: 0.381 µM and 0.0957 µM
- GI50 [3]: 0.234 µM and 0.119 µM
- TGI [3]: 1.78 µM and 1.18 µM
- GI50 [4]: 31.4 nM and 19.6 nM
- TGI [4]: 1.22 µM
- GI50 [5]: 37.2 nM and 44.8 nM
- GI50 [6]: 74.8 nM and 201 nM
- TGI [6]: 1.65 µM and 2.03 µM
- GI50 [7]: 48.8 nM and 38.5 nM
- TGI [7]: 1.6 µM and 1.33 µM
- GI50 [8]: 66.8 nM and 49.2 nM
- TGI [8]: 1.08 µM and 0.263 µM

Compound: COc1ccc(-c2c(N)n[nH]c2-c2cc(OC)c(OC)c(OC)c2)cc1
- GI50 [1]: 388 nM
- TGI [1]: 35.6 µM
- GI50 [2]: 147 nM
- TGI [2]: > 100 µM
- GI50 [3]: 1.41 µM
- TGI [3]: > 29 µM
- GI50 [4]: 247 nM
- TGI [4]: 3.29 µM
- GI50 [5]: 43 nM
- TGI [5]: > 100 µM
- GI50 [6]: 644 nM
- TGI [6]: > 100 µM
- GI50 [7]: 676 nM
- TGI [7]: > 48.4 µM
- GI50 [8]: 202 nM
- TGI [8]: 0.865 µM

Compound: O=C(O)C(=O)CBr
- GI50 [1]: 16900 nM and 21700 nM
- TGI [1]: 31.3 µM and 36.5 µM
- GI50 [2]: > 100000 nM and 25000 nM
- TGI [2]: > 100 µM and 52.2 µM
- GI50 [3]: > 47.6 µM and 20 µM
- TGI [3]: > 77.9 µM and 35.2 µM
- GI50 [4]: > 47500 nM and 25300 nM
- TGI [4]: > 76.8 µM and 62.5 µM
- GI50 [5]: > 22200 nM and 23800 nM
- TGI [5]: > 68.2 µM and 59.1 µM
- GI50 [6]: > 100000 nM
- TGI [6]: > 100 µM
- GI50 [7]: > 85200 nM and 18300 nM
- TGI [7]: > 100 µM and 32.5 µM
- GI50 [8]: > 41100 nM and 16800 nM
- TGI [8]: > 56.3 µM and 31.5 µM

Compound: CN(C)CCNc1nc2ccccc2c2c(=O)c3ccccc3sc12
- GI50 [1]: 1490 nM
- TGI [1]: 2.98 µM
- GI50 [2]: 1810 nM
- TGI [2]: 3.96 µM
- GI50 [3]: 1.88 µM
- TGI [3]: 3.67 µM
- GI50 [4]: 1800 nM
- TGI [4]: 4.81 µM
- GI50 [5]: 1520 nM
- TGI [5]: 3.77 µM
- GI50 [6]: 1770 nM
- TGI [6]: 5.82 µM
- GI50 [7]: 2100 nM
- TGI [7]: 8.82 µM
- GI50 [8]: 1780 nM
- TGI [8]: 3.58 µM
